Reference: article PMC4879473 (CPT: Pharmacometrics & Systems Pharmacology, 2016)

Columns and labels:
[1] = system: CYP3A/P‐gp; settings: clinical DDI studies; cited from earlier work
[2] = system: P‐gp; settings: reported value, P-gp-mediated efflux; cited from earlier work
[3] = Physicochemical properties of naloxegol; settings: Experimental data
[4] = Naloxegol blood/plasma, microsomal and gut binding inputs; type: in vitro ADME; settings: plasma
[5] = Apparent permeability of naloxegol in Caco-2 cells; type: in vitro ADME; settings: human
[6] = system: CYP3A4; test: Retrograde calculation of naloxegol metabolic intrinsic clearance; design: species or system human
[7] = cited from earlier work
[8] = cited from earlier work; remark: listed apart in the source
[9] = system: CYP3A; settings: individual CYP enzymes and human liver microsomes in vitro; cited from earlier work
[10] = target: CYP3A (Homo sapiens, UniProt P08684); settings: ciprofloxacin at 2 mM, in vitro; cited from earlier work
Sequence of CYP3A (Homo sapiens, UniProt P08684) (P08684 2-503): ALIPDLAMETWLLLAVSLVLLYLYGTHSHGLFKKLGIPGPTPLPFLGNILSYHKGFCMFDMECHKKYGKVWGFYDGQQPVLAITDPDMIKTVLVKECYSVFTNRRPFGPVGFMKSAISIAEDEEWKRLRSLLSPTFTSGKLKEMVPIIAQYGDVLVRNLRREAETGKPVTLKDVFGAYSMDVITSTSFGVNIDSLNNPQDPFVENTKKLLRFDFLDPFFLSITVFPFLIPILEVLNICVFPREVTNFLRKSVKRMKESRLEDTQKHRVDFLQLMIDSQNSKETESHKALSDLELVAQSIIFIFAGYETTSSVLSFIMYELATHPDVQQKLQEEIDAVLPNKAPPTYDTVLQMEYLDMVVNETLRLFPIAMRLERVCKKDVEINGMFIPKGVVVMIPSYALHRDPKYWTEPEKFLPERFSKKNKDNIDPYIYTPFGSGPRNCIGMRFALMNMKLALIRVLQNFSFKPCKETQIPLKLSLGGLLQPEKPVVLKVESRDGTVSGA

## CC(=O)N1CCN(c2ccc(OCC3COC(Cn4ccnc4)(c4ccc(Cl)cc4Cl)O3)cc2)CC1 (centres unmarked) [Ketoconazole, ketoconazole]
[1]
  observed increase of naloxegol AUC: 1,185%

## C[C@H]1O[C@@H](O[C@H]2[C@@H](O)C[C@H](O[C@H]3[C@@H](O)C[C@H](O[C@H]4CC[C@@]5(C)[C@H](CC[C@@H]6[C@@H]5C[C@@H](O)[C@]5(C)[C@@H](C7=CC(=O)OC7)CC[C@]65O)C4)O[C@@H]3C)O[C@@H]2C)C[C@H](O)[C@@H]1O [digoxin]
[2]
  in vitro transporter‐mediated intrinsic clearance: 2.5 µL/min

## C=CCN1CC[C@]23c4c5ccc(O)c4O[C@H]2[C@@H](OCCOCCOCCOCCOCCOCCOCCOC)CC[C@@]3(O)[C@H]1C5 [naloxegol]
[3]
  pKa: 8.45
[4]
  fraction unbound: 0.958
[5]
  Papp: 4.55 ×10⁻⁶ cm/s
[6]; Retrograde calculation
  CYP3A4 CLint: 0.267 μL/min/pmol protein
[6]; human
  microsomal CLint: 36.6 µL/min/mg
[7]
  solubility: highly soluble
[8]; 27 mg [14C]naloxegol oral solution, healthy male volunteers
  parent drug excreted in urine: < 6 % of the dose
[8]; dose of up to 1,000 mg
  dose linearity of PK: linear or near linear
[8]; renal clearance from the renal impairment study
  CLR: 4.74 L/h
[8]; total clearance after an oral dose, observed in the ketoconazole DDI study
  CLpo: 150 L/h
[9]
  CYP enzymes metabolizing naloxegol: metabolized primarily by CYP3A

## O=C(O)c1cn(C2CC2)c2cc(N3CCNCC3)c(F)cc2c1=O [Ciprofloxacin, ciprofloxacin]
[10]
  inhibition of erythromycin‐mediated CYP3A activity: 65%
